Data published in US20250090540A1, “PI3K-ALPHA INHIBITORS AND METHODS OF USE THEREOF” (Relay Therapeutics, Inc., priority 2021, published 2025).
pIC50: −log10 of the molar value. Where two headings read alike, the source gives them in different places.

Columns and labels:
[1] = molecular target: H1047R PIK3CA enzyme (Homo sapiens, UniProt P42336, H1047R); assay: ADP-Glo Biochemical PIK3CA Kinase Assay
[2] = cells; conditions: Homo sapiens, MCF-10A, read-out: MCF10A I50
[3] = ADP-Glo biochemical PIK3CA kinase assay

Sequence of H1047R PIK3CA enzyme (P42336 whole entry H1047R): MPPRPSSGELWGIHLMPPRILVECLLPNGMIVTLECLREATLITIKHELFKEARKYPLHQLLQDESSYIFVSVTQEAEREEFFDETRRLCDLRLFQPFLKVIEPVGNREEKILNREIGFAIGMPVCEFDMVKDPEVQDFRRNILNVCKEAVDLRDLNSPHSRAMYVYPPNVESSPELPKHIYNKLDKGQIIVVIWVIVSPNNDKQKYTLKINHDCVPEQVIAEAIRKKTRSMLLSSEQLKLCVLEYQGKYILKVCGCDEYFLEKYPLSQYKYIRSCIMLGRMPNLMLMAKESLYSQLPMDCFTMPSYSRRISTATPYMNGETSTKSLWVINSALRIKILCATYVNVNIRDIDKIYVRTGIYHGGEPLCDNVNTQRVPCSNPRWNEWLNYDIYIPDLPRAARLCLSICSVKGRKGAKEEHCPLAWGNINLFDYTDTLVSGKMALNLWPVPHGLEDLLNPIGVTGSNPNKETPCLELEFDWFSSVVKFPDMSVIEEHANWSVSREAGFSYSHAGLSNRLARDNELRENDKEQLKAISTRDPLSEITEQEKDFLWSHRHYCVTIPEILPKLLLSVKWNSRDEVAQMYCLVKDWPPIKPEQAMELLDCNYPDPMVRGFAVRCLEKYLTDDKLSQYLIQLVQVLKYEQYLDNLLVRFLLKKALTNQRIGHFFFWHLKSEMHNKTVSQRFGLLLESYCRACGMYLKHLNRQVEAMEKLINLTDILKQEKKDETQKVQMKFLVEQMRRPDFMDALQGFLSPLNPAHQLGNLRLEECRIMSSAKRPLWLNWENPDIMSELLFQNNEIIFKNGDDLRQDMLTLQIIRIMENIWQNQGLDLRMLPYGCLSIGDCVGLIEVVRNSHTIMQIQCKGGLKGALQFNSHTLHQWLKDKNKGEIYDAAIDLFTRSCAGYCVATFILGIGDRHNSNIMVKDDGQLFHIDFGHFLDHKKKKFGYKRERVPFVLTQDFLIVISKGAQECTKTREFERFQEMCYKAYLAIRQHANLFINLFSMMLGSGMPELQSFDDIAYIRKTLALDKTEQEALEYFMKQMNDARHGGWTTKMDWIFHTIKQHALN
Sequence of H1047R PIK3CA enzyme (P27986 whole entry partner): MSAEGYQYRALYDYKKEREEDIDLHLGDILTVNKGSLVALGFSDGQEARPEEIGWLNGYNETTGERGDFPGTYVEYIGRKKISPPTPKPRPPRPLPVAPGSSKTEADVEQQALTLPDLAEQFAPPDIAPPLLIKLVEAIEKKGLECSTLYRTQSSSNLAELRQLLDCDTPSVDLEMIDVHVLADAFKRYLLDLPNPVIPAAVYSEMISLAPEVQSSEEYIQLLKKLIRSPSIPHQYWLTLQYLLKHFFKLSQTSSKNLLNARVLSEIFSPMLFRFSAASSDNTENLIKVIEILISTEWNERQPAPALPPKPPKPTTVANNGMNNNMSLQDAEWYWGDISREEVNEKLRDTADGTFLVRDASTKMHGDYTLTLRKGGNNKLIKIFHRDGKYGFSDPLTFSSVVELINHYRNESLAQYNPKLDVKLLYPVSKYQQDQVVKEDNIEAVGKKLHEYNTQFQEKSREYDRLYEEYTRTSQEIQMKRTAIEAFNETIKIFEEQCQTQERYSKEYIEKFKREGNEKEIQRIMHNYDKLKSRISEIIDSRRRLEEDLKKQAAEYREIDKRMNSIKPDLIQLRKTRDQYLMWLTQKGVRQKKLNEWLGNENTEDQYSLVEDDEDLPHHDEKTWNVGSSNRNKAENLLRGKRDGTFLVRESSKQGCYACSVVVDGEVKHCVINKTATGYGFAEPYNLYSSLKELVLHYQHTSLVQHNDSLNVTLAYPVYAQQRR

Compound | pIC50 [1] | pIC50 [2] | pIC50 [1, 3]
Cc1ccccc1Nc1ncc(C(=O)NCC2CS(=O)(=O)C2)cc1NC(=O)c1csc2ccccc12 [I-137] | 6.30 to 7.00 | 5.00 to 5.30 | –
Cc1ccccc1Nc1ncc(-c2cnn(C)c2)cc1NC(=O)c1csc2ccccc12 [I-93] | 6.30 to 7.00 | 5.00 to 5.30 | –
COc1ccnc(CNC(=O)c2cnc(Nc3ccccc3C)c(NC(=O)c3csc4ccccc34)c2)c1 [I-538] | – | 4.44 to 5.00 | 6.30 to 7.00
CNC(=O)c1cnc(Nc2ccc(C#N)cc2)c(NC(=O)c2cc(F)cc(C(F)(F)F)c2)c1 [I-295] | 5.00 to 6.00 | 4.00 to 4.44 | –
C[C@H](NC(=O)c1cnc(N2CCOc3ccccc32)c(NC(=O)c2csc3ccccc23)c1)c1ccncc1 (stereo in doubt) [I-315] | 6.00 to 6.30 | 4.44 to 5.00 | –
CNC(=O)c1cnc(Nc2ccccc2C)c(NC(=O)c2cc(C#N)cc(C(F)(F)F)c2)c1 [I-527] | – | 5.00 to 5.30 | 6.30 to 7.00
Cc1ccccc1Nc1ncc(-c2cncnc2)cc1NC(=O)c1cc(F)cc(C(F)(F)F)c1 [I-7] | 6.30 to 7.00 | 5.00 to 5.30 | –
CNC(=O)c1ccc(Nc2cc(F)ccc2Cl)c(NC(=O)c2cc(F)cc(C(F)(F)F)c2)n1 [I-802] | 6.30 to 7.00 | 5.30 to 6.00 | –
Cc1ccccc1Nc1ncc(C(C)(C)O)cc1NC(=O)c1cc(F)cc(C(F)(F)F)c1 [I-42] | 5.00 to 6.00 | 4.44 to 5.00 | –
CC(C)(O)c1cnc(Nc2cc(F)ccc2Cl)c(NC(=O)c2nsc3ccccc23)c1 [I-783] | – | 5.00 to 5.30 | 6.30 to 7.00
CNC(=O)c1cnc(Nc2ccccc2C)c(NC(=O)Cc2cnc3ccccn23)c1 [I-652] | – | 4.44 to 5.00 | 6.30 to 7.00
C[C@@H](NC(=O)c1cnc(N2CCOc3ccccc32)c(NC(=O)c2csc3ccccc23)c1)c1ccncc1 (stereo in doubt) [I-314] | 6.30 to 7.00 | 5.00 to 5.30 | –
CNC(=O)c1cnc(Nn2nccc2C(F)(F)F)c(NC(=O)c2csc3ccccc23)c1 [I-772] | – | 5.30 to 6.00 | ≥ 7.00
O=C(Nc1cc(C(=O)N[C@H]2C[C@H](O)C2)cnc1Nc1ccccc1)c1cc(F)cc(C(F)(F)F)c1 [I-396] | 6.30 to 7.00 | 5.30 to 6.00 | –
CNC(=O)c1cnc(Nc2ccccc2C)c(NC(=O)c2cc(F)c(F)c(C(F)(F)F)c2)c1 [I-677] | – | 4.44 to 5.00 | 5.00 to 6.00
CNC(=O)c1cc(F)c(Nc2ccccc2C)c(NC(=O)c2csc3ccccc23)c1 [I-773] | – | > 6.00 | ≥ 7.00
Cc1ccccc1Nc1ncc(C(=O)NCC2CCNC(=O)C2)cc1NC(=O)c1csc2ccccc12 (stereo not drawn) [I-569] | – | 4.44 to 5.00 | 6.30 to 7.00
Cc1ccccc1Nc1ncc(C(=O)NC(C)c2cn[nH]c2)cc1NC(=O)c1csc2ccccc12 (stereo not drawn) [I-605] | – | 5.30 to 6.00 | ≥ 7.00
CNC(=O)c1cnc(Nc2ccccc2C)c(NC(=O)Cc2ccc(O)c(O)c2)c1 [I-30] | 6.00 to 6.30 | 5.00 to 5.30 | –
CNC(=O)c1cnc(Nc2cccc(C)c2Cl)c(NC(=O)c2cc(F)cc(C(F)(F)F)c2)c1 [I-294] | 5.00 to 6.00 | 4.00 to 4.44 | –
Cc1ccccc1Nc1ncc(-c2ccc(C#N)cc2)cc1NC(=O)c1cc(F)cc(C(F)(F)F)c1 [I-46] | 6.30 to 7.00 | 5.30 to 6.00 | –
Cc1ccccc1Nc1ncc(C(=O)N[C@H]2CC[C@@H](O)C2)cc1NC(=O)c1csc2ccccc12 [I-596] | – | 5.30 to 6.00 | 6.30 to 7.00

Compound | pIC50 [1] | pIC50 [2] | pIC50 [1, 3]
CNC(=O)c1cnc(Nc2cc(CO)ccc2Cl)c(NC(=O)c2cc(F)cc(C(F)(F)F)c2)c1 [I-809] | 6.30 to 7.00 | 5.30 to 6.00 | –
Cc1ccccc1Nc1ncc(C(=O)N[C@H]2C[C@@H](C(N)=O)C2)cc1NC(=O)c1csc2ccccc12 [I-591] | – | 5.30 to 6.00 | ≥ 7.00
Cc1ccccc1Nc1ncc(C(=O)NCc2nnc3ccccn23)cc1NC(=O)c1csc2ccccc12 [I-582] | – | 5.00 to 5.30 | ≥ 7.00
Cc1ccccc1Nc1ncc(C(=O)NCC2(O)CCOC2)cc1NC(=O)c1csc2ccccc12 (stereo not drawn) [I-583] | – | 4.44 to 5.00 | 6.00 to 6.30
Cc1ccccc1Nc1ncc(C(=O)Nc2ncn(C)n2)cc1NC(=O)c1csc2ccccc12 [I-573] | – | 4.44 to 5.00 | 6.00 to 6.30
CNC(=O)c1cnc(Nc2ccccc2C)c(NC(=O)c2ccc3nnc(Br)n3c2)c1 [I-564] | – | 4.44 to 5.00 | 6.00 to 6.30
CNC(=O)c1cnc(Nc2cccc3ccn(C)c23)c(NC(=O)c2csc3ccccc23)c1 [I-680] | – | 4.44 to 5.00 | 5.00 to 6.00
Cc1ccccc1Nc1ncc(C(=O)NC2CC(F)(F)C2)cc1NC(=O)c1cc(F)cc(C(F)(F)F)c1 [I-212] | 6.30 to 7.00 | 5.30 to 6.00 | –
CNC(=O)c1cnc(Nc2ccccc2C)c(NC(=O)c2csc3cnccc23)c1 [I-339] | 6.00 to 6.30 | 5.30 to 6.00 | –
Cc1ccccc1Nc1ncc(C(=O)NC2CCC(O)C2)cc1NC(=O)c1cc(F)cc(C(F)(F)F)c1 (stereo not drawn) [I-275] | 6.30 to 7.00 | 5.30 to 6.00 | –
Cc1ccccc1Nc1ncc(C(=O)NCC2CC(F)(F)C2)cc1NC(=O)c1cc(F)cc(C(F)(F)F)c1 [I-211] | 6.30 to 7.00 | 5.30 to 6.00 | –
Cc1ccccc1Nc1ncc(C(=O)NCc2cocn2)cc1NC(=O)c1csc2ccccc12 [I-602] | – | 4.44 to 5.00 | 6.30 to 7.00
Cc1ccccc1Nc1ncc(C(=O)NC2CC3(COC3)C2)cc1NC(=O)c1cc(F)cc(C(F)(F)F)c1 [I-267] | 6.30 to 7.00 | > 6.00 | –
Cc1ccccc1Nc1ncc(CNC2CS(=O)(=O)C2)cc1NC(=O)c1cc(F)cc(C(F)(F)F)c1 [I-411] | – | 4.44 to 5.00 | 5.00 to 6.00
Cc1ccccc1Nc1ncc(C(=O)N[C@H]2CCOC2)cc1NC(=O)c1csc2ccccc12 [I-622] | – | 5.30 to 6.00 | 6.30 to 7.00
Cc1ccccc1Nc1ncc(-c2ccc(O)cc2)cc1NC(=O)c1cc(F)cc(C(F)(F)F)c1 [I-82] | 6.00 to 6.30 | 4.44 to 5.00 | –
Cc1ccccc1Nc1ncc(C(=O)NC2CS(=O)(=O)C2)cc1NC(=O)c1cc(F)cc(C(F)(F)F)c1 [I-51] | ≥ 7.00 | > 6.00 | –
CNC(=O)c1cnc(Nc2cccc(C(F)(F)F)c2)c(NC(=O)c2cc(F)cc(C(F)(F)F)c2)c1 [I-292] | 5.00 to 6.00 | 4.44 to 5.00 | –
CNC(=O)c1cnc(Nc2ccccc2Cl)c(NC(=O)c2cc(F)cc(C(F)(F)F)c2)c1 [I-293] | 6.30 to 7.00 | 5.30 to 6.00 | –
Cc1ccccc1Nc1ncc(C(=O)NC2CC(=O)N(Cc3ccccc3)C2)cc1NC(=O)c1csc2ccccc12 (stereo not drawn) [I-398] | – | 4.44 to 5.00 | 6.30 to 7.00
Cc1cncc(CNC(=O)c2cnc(Nc3ccccc3C)c(NC(=O)c3csc4ccccc34)c2)c1 [I-579] | – | 5.00 to 5.30 | ≥ 7.00
Cc1ccccc1Nc1ncc(C(=O)N2CC(C)C2)cc1NC(=O)c1csc2ccccc12 [I-607] | – | 5.00 to 5.30 | 6.30 to 7.00

Compound | pIC50 [1] | pIC50 [2] | pIC50 [1, 3]
CNC(=O)c1cnc(Nc2nn(C)cc2Br)c(NC(=O)c2cc(F)cc(C(F)(F)F)c2)c1 [I-305] | 4.00 to 5.00 | 4.00 to 4.44 | –
C[C@@H](NC(=O)c1cnc(N2CCOc3ccccc32)c(NC(=O)c2csc3ccccc23)c1)c1cccnc1 (stereo in doubt) [I-257] | ≥ 7.00 | 5.00 to 5.30 | –
Cc1ccccc1Nc1ncc(C(=O)NCC2CCCO2)cc1NC(=O)c1csc2ccccc12 (stereo not drawn) [I-195] | 6.30 to 7.00 | 4.44 to 5.00 | –
CNC(=O)c1cnc(Nc2ccccc2C)c(NC(=O)c2coc3ccc(Cl)cc23)c1 [I-408] | – | 5.30 to 6.00 | 6.00 to 6.30
O=C(Nc1cc(C(=O)NC2CS(=O)(=O)C2)cnc1N1CCCc2ccccc21)c1cc(F)cc(C(F)(F)F)c1 [I-208] | 6.00 to 6.30 | 5.00 to 5.30 | –
Cc1ccccc1Nc1ncc(C(=O)NCC2(C#N)CC2)cc1NC(=O)c1csc2ccccc12 [I-580] | – | 5.30 to 6.00 | ≥ 7.00
C[C@H](NC(=O)c1cnc(N2CCOc3ccccc32)c(NC(=O)c2csc3ccccc23)c1)c1cccnc1 (stereo in doubt) [I-258] | 6.30 to 7.00 | 4.44 to 5.00 | –
Cc1ccccc1Nc1ncc(C(=O)NCc2cnn(C(C)C)c2)cc1NC(=O)c1csc2ccccc12 [I-532] | – | 4.44 to 5.00 | 6.30 to 7.00
O=C(NC1CS(=O)(=O)C1)c1cnc(N2CCCc3ccccc32)c(NC(=O)c2csc3ccccc23)c1 [I-180] | 6.30 to 7.00 | 4.44 to 5.00 | –
Cc1ccccc1Nc1ncc(-c2cnn(C)c2)cc1NC(=O)c1csc2ccc(F)cc12 [I-146] | 6.30 to 7.00 | 5.30 to 6.00 | –
Cc1ccccc1Nc1ncc(C(=O)NC2CC(F)(F)C2)cc1NC(=O)c1csc2ccccc12 [I-248] | 6.30 to 7.00 | 5.30 to 6.00 | –
CNC(=O)c1cnc(Nc2cccc(N)c2)c(NC(=O)c2cc(F)cc(C(F)(F)F)c2)c1 [I-286] | 5.00 to 6.00 | 4.44 to 5.00 | –
O=C(NC1CS(=O)(=O)C1)c1cnc(N2CCOc3ccccc32)c(NC(=O)c2csc3ccccc23)c1 [I-245] | 6.30 to 7.00 | 5.00 to 5.30 | –
Cc1ccccc1Nc1ncc(C(=O)NCC2CCN(C)C(=O)C2)cc1NC(=O)c1csc2ccccc12 (stereo not drawn) [I-563] | – | 4.44 to 5.00 | 6.30 to 7.00
Cc1ccccc1Nc1ncc(C(=O)NCc2nccs2)cc1NC(=O)c1csc2ccccc12 [I-138] | ≥ 7.00 | 5.00 to 5.30 | –
Cc1ccccc1Nc1ncc(C(=O)NC2(C)CS(=O)(=O)C2)cc1NC(=O)c1csc2ccccc12 [I-361] | 6.30 to 7.00 | 5.30 to 6.00 | –
CNC(=O)c1cnc(Nc2ccccc2C)c(NC(=O)c2cnn3cccc(Br)c23)c1 [I-468] | – | 4.44 to 5.00 | 5.00 to 6.00
O=C(NCc1nccs1)c1cnc(N2CCCc3ccccc32)c(NC(=O)c2csc3ccccc23)c1 [I-181] | 6.30 to 7.00 | 4.44 to 5.00 | –
Cc1ccccc1Nc1ncc(C(=O)NCc2nc(C3CC3)no2)cc1NC(=O)c1csc2ccccc12 [I-540] | – | 5.30 to 6.00 | ≥ 7.00
CNC(=O)c1cnc(Nc2cn(C)nc2C)c(NC(=O)c2cc(F)cc(C(F)(F)F)c2)c1 [I-289] | 4.00 to 5.00 | 4.00 to 4.44 | –
Cc1ccccc1Nc1ncc(C(=O)NCCn2nccn2)cc1NC(=O)c1csc2ccccc12 [I-578] | – | 4.44 to 5.00 | 6.30 to 7.00
Cc1ccccc1Nc1ncc(C(=O)N2CC(C#N)C2)cc1NC(=O)c1csc2ccccc12 [I-533] | – | 4.44 to 5.00 | 5.00 to 6.00
